Assay results from patent US12643903B2, “Bifunctional compounds for degradation of EGFR and related methods of use” (BeiGene, Ltd., priority 2020, dated 2026).

Assays:
EGFR DTC = experiment: Cell Degradation 3: EGFR degradation in BaF3 cells (DTC), HTRF assay; type: cell-based; details: 16 h treatment, EGFR degradation by HTRF
Method: (§1) Cell Degradation 3 Cell Treatment
(§2) BaF3 cells are treated with compounds diluted in 0.2% DMSO, dilution is done according to the following protocol: (1) make 500× stock solution in DMSO from 5 mM by 4-fold dilution, total 8 doses were included; (2) make 2× solution in cell culture medium by transferring 0.5 μl 500× stock solution into 125 μl medium; (3) 30 μl of 2× solution is added to cells and incubate for 16 h.
(§3) After 16 h treatment, add 20 μl 4×lysis buffer to each well; seal the plate and incubate 1 hour at room temperature on a plate shaker; Once the cells are lysed, 16 μL of cell lysate are transferred to a PE 384-well HTRF detection plate (for triple mutant cells, the lysate were diluted by the qual volume 1×lysis buffer before transfer); 4 μL of pre-mixed HTRF antibodies are added to each well; Cover the plate with a plate sealer, spin 1000 rpm for 1 min, Incubate overnight at room temperature; Read on BMG PheraStar with HTRF protocol (337 nm-665 nm-620 nm).
(§4) The IC50 (DC50) value of a compound can be obtained by fitting the following equation Y=Bottom+(TOP−Bottom)/(1+((IC50/X)^hillslope))
(§5) Wherein, X and Y are known values, and IC50, Hillslope, Top and Bottom are the parameters obtained by fitting with software. Y is the inhibition percentage (calculated from the equation), X is the concentration of the compound; IC50 is the concentration of the compound when the 50% inhibition is reached. The smaller the IC50 value is, the stronger the inhibitory ability of the compound is. Vice versa, the higher the IC50 value is, the weaker the ability the inhibitory ability of the compound is; Hillslope represents the slope of the fitted curve, generally around 1*; Bottom represents the minimum value of the curve obtained by data fitting, which is generally 0%±20%; Top represents the maximum value of the curve obtained by data fitting, which is generally 100%±20%. The experimental data were fitted by calculating and analyzing with Dotmatics data analysis software.

EGFR LTC = target: T1, EGFR LTC (Homo sapiens, UniProt P00533, C797S/L858R/T790M); experiment: Cell Degradation 3: EGFR degradation in BaF3 cells (LTC), HTRF assay; type: cell-based; details: 16 h treatment, EGFR degradation by HTRF
T1 construct: expressed in transfected cells; host or cells: BaF3
T1 sequence (P00533 25-1210 T790M/C797S/L858R): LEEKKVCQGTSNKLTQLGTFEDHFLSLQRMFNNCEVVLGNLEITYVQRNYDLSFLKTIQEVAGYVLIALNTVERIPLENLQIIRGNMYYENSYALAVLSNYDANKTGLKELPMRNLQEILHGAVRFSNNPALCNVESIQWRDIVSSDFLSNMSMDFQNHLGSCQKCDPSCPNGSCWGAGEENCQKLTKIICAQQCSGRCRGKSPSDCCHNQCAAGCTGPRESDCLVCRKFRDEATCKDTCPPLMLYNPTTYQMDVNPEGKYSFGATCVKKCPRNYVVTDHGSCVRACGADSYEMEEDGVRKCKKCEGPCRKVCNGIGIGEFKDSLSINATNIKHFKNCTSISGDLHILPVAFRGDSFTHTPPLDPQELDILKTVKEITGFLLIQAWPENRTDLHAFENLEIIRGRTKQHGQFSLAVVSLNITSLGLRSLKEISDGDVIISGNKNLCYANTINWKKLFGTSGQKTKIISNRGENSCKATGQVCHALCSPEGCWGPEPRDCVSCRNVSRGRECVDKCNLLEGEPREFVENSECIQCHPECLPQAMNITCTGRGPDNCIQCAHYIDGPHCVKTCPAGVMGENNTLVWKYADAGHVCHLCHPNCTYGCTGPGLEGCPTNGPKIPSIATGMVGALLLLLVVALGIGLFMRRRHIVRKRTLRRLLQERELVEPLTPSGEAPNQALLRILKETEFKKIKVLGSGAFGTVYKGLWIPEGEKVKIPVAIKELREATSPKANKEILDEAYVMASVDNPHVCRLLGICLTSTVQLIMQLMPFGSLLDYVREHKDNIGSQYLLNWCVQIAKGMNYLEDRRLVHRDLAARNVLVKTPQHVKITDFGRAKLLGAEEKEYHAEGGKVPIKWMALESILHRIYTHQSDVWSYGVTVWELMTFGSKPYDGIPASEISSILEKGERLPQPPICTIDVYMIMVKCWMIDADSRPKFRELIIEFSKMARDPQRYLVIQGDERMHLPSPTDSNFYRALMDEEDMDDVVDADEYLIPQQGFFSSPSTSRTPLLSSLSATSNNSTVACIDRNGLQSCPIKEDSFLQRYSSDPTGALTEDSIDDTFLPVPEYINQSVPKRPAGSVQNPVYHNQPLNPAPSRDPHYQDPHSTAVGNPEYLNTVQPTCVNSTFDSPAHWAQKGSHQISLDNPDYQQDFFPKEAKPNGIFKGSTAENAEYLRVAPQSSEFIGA
Method: as §1, §2, §3, §4, §5

SMILES | DC50 (EGFR DTC) | DC50 (EGFR LTC)
COc1cc(N2CCC(N3CCN(C4CCN(c5cccc(C6CCC(=O)NC6=O)c5)CC4)CC3)CC2)c(C)cc1Nc1ncc(Br)c(Nc2cccc3c2N(S(C)(=O)=O)CC3)n1 (stereo not shown) [Example 177, 3-(3-(4-(4-(1-(4-((5-bromo-4-((1-(methylsulfonyl)indolin-7-yl)amino)pyrimidin-2-yl)amino)-5-methoxy-2-methylphenyl)piperidin-4-yl)piperazin-1-yl)piperidin-1-yl)phenyl)piperidine-2,6-dione] | > 10000 nM | 123 nM
COc1cc(N2CCC(N3CCN(CC4CN(c5cc(F)c(C6CCC(=O)NC6=O)c(F)c5)C4)CC3)CC2)c(C)cc1Nc1ncc(Br)c(Nc2cccc3c2N(S(C)(=O)=O)CC3)n1 (stereo not shown) [Example 184, 3-(4-(3-((4-(1-(4-((5-bromo-4-((1-(methylsulfonyl)indolin-7-yl)amino)pyrimidin-2-yl)amino)-5-methoxy-2-methylphenyl)piperidin-4-yl)piperazin-1-yl)methyl)azetidin-1-yl)-2,6-difluorophenyl)piperidine-2,6-dione] | 27 nM | 33 nM
COc1cc(N2CCC(N3CCN(CC4CN(c5ccc(C6CCC(=O)NC6=O)c(F)c5)C4)CC3)CC2)c(C)cc1Nc1ncc(Br)c(Nc2cccc3c2N(S(C)(=O)=O)CC3)n1 (stereo not shown) [Example 169, 3-(4-(3-((4-(1-(4-((5-bromo-4-((1-(methylsulfonyl)indolin-7-yl)amino)pyrimidin-2-yl)amino)-5-methoxy-2-methylphenyl)piperidin-4-yl)piperazin-1-yl)methyl)azetidin-1-yl)-2-fluorophenyl)piperidine-2,6-dione] | 39 nM | 57 nM
COc1cc(N2CCC(N3CCN(C(=O)C4CN(c5ccc6c(c5)C(=O)N(C5CCC(=O)NC5=O)C6)C4)CC3)CC2)c(C)cc1Nc1ncc(Br)c(Nc2cccc3c2N(S(C)(=O)=O)CC3)n1 (stereo not shown) [Example 171, 3-(6-(3-(4-(1-(4-((5-bromo-4-((1-(methylsulfonyl)indolin-7-yl)amino)pyrimidin-2-yl)amino)-5-methoxy-2-methylphenyl)piperidin-4-yl)piperazine-1-carbonyl)azetidin-1-yl)-1-oxoisoindolin-2-yl)piperidine-2,6-dione] | 4 nM | 9 nM
COc1cc(N2CCC(N3CCN(C(=O)C4CN(c5cc(F)c(C6CCC(=O)NC6=O)c(F)c5)C4)CC3)CC2)c(C)cc1Nc1ncc(Br)c(Nc2cccc3c2N(S(C)(=O)=O)CC3)n1 (stereo not shown) [Example 188, 3-(4-(3-(4-(1-(4-((5-bromo-4-((1-(methylsulfonyl)indolin-7-yl)amino)pyrimidin-2-yl)amino)-5-methoxy-2-methylphenyl)piperidin-4-yl)piperazine-1-carbonyl)azetidin-1-yl)-2,6-difluorophenyl)piperidine-2,6-dione] | 6 nM | 15 nM
COc1cc(N2CCC(N3CCN(CCc4cc(Cl)c(C5CCC(=O)NC5=O)cc4F)CC3)CC2)c(C)cc1Nc1ncc(Br)c(Nc2cccc3c2N(S(C)(=O)=O)CC3)n1 (stereo not shown) [Example 174, 3-(4-(2-(4-(1-(4-((5-bromo-4-((1-(methylsulfonyl)indolin-7-yl)amino)pyrimidin-2-yl)amino)-5-methoxy-2-methylphenyl)piperidin-4-yl)piperazin-1-yl)ethyl)-2-chloro-5-fluorophenyl)piperidine-2,6-dione] | 30 nM | 69 nM
CCc1cc(Nc2ncc(Br)c(Nc3cccc4c3N(S(C)(=O)=O)CC4)n2)c(OC)cc1N1CCC(N2CCN(CCC3CCN(c4cc(F)c(C5CCC(=O)NC5=O)c(F)c4)CC3)CC2)CC1 (stereo not shown) [Example 160, 3-(4-(4-(2-(4-(1-(4-((5-bromo-4-((1-(methylsulfonyl)indolin-7-yl)amino)pyrimidin-2-yl)amino)-2-ethyl-5-methoxyphenyl)piperidin-4-yl)piperazin-1-yl)ethyl)piperidin-1-yl)-2,6-difluorophenyl)piperidine-2,6-dione] | 150 nM | 162 nM
COc1cc(N2CCC(N3CCN(CCc4ccc(C5CCC(=O)NC5=O)c(F)c4)CC3)CC2)c(C)cc1Nc1nc(Nc2cccc3c2N(S(C)(=O)=O)CC3)c2cc[nH]c2n1 (stereo not shown) [Example 162, 3-(2-fluoro-4-(2-(4-(1-(5-methoxy-2-methyl-4-((4-((1-(methylsulfonyl)indolin-7-yl)amino)-7H-pyrrolo[2,3-d]pyrimidin-2-yl)amino)phenyl)piperidin-4-yl)piperazin-1-yl)ethyl)phenyl)piperidine-2,6-dione] | 78 nM | > 10000 nM
COc1cc(N2CCC(N3CCN(C(=O)C4CCN(c5ccc6c(c5)C(=O)N(C5CCC(=O)NC5=O)C6=O)CC4)CC3)CC2)c(C)cc1Nc1ncc(Cl)c(Nc2cccc3c2N(S(C)(=O)=O)CC3)n1 (stereo not shown) [Example 178, 5-(4-(4-(1-(4-((5-chloro-4-((1-(methylsulfonyl)indolin-7-yl)amino)pyrimidin-2-yl)amino)-5-methoxy-2-methylphenyl)piperidin-4-yl)piperazine-1-carbonyl)piperidin-1-yl)-2-(2,6-dioxopiperidin-3-yl)isoindoline-1,3-dione] | 8 nM | 23 nM
COc1cc(N2CCC(N3CCN(CCC4CCN(c5cc(F)c(C6CCC(=O)NC6=O)c(F)c5)CC4)CC3=O)CC2)c(C)cc1Nc1ncc(Br)c(Nc2cccc3c2N(S(C)(=O)=O)CC3)n1 (stereo not shown) [Example 186, 3-(4-(4-(2-(4-(1-(4-((5-bromo-4-((1-(methylsulfonyl)indolin-7-yl)amino)pyrimidin-2-yl)amino)-5-methoxy-2-methylphenyl)piperidin-4-yl)-3-oxopiperazin-1-yl)ethyl)piperidin-1-yl)-2,6-difluorophenyl)piperidine-2,6-dione] | 6 nM | 27 nM
COc1cc(N2CCC(N3CCN(C[C@@H]4CCN(c5ccc6c(c5)C(=O)N(C5CCC(=O)NC5=O)C6=O)C4)CC3)CC2)c(C)cc1Nc1ncc(Br)c(Nc2cccc3c2N(S(C)(=O)=O)CC3)n1 (stereo partly drawn) [Example 164, 5-((S)-3-((4-(1-(4-((5-bromo-4-((1-(methylsulfonyl)indolin-7-yl)amino)pyrimidin-2-yl)amino)-5-methoxy-2-methylphenyl)piperidin-4-yl)piperazin-1-yl)methyl)pyrrolidin-1-yl)-2-(2,6-dioxopiperidin-3-yl)isoindoline-1,3-dione] | 52 nM | 60 nM
COc1cc(N2CCC(N3CCN(CC4CN(c5ccc6c(c5)C(=O)N(C5CCC(=O)NC5=O)C6=O)C4)CC3)CC2)c(C)cc1Nc1ncc(Br)c(Nc2cccc3c2N(S(C)(=O)=O)CC3)n1 (stereo not shown) [Example 151, 5-(3-((4-(1-(4-((5-bromo-4-((1-(methylsulfonyl)indolin-7-yl)amino)pyrimidin-2-yl)amino)-5-methoxy-2-methylphenyl)piperidin-4-yl)piperazin-1-yl)methyl)azetidin-1-yl)-2-(2,6-dioxopiperidin-3-yl)isoindoline-1,3-dione] | 14 nM | 17 nM
COc1cc(N2CCC(N3CCN(CCNc4cccc5c4CN(C4CCC(=O)NC4=O)C5=O)CC3)CC2)c(C)cc1Nc1ncc(Br)c(Nc2cccc3c2N(S(C)(=O)=O)CC3)n1 (stereo not shown) [Example 173, 3-(4-((2-(4-(1-(4-((5-bromo-4-((1-(methylsulfonyl)indolin-7-yl)amino)pyrimidin-2-yl)amino)-5-methoxy-2-methylphenyl)piperidin-4-yl)piperazin-1-yl)ethyl)amino)-1-oxoisoindolin-2-yl)piperidine-2,6-dione] | 15 nM | 27 nM
CCOc1cc(N2CCC(N3CCN(CCc4cc(F)c([C@H]5CCC(=O)NC5=O)c(F)c4)CC3)CC2)c(CC)cc1Nc1ncc(Br)c(Nc2ccc(CC)c3c2N(S(C)(=O)=O)CC3)n1 [Example 203, (R)-3-(4-(2-(4-(1-(4-((5-bromo-4-((4-ethyl-1-(methylsulfonyl)indolin-7-yl)amino)pyrimidin-2-yl)amino)-5-ethoxy-2-ethylphenyl)piperidin-4-yl)piperazin-1-yl)ethyl)-2,6-difluorophenyl)piperidine-2,6-dione] |  | 83 nM
CCc1cc(Nc2ncc(Br)c(Nc3ccc(C(F)(F)F)c4c3N(S(C)(=O)=O)CC4)n2)c(OC)cc1N1CCC(N2CCN(C(=O)C3CN(c4cc(F)c([C@H]5CCC(=O)NC5=O)c(F)c4)C3)CC2)CC1 [Example 196, (R)-3-(4-(3-(4-(1-(4-((5-bromo-4-((1-(methylsulfonyl)-4-(trifluoromethyl)indolin-7-yl)amino)pyrimidin-2-yl)amino)-2-ethyl-5-methoxyphenyl)piperidin-4-yl)piperazine-1-carbonyl)azetidin-1-yl)-2,6-difluorophenyl)piperidine-2,6-dione] |  | 71 nM
